Reference: PubChem BioAssay (NCI)
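Interpolation was linear, between the two tested concentrations surrounding the appropriate level; five concentrations were tested over 48 hours in 96-well plates. TGI: concentration producing complete growth inhibition.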

How the values were obtained:
Assay in all cases: inhibition of tumour cell growth, NCI panel, 48 h
[1] = tested on: MOLT-4 leukemia
[2] = tested on: RPMI-8226 leukemia
[3] = tested on: M14 melanoma
[4] = tested on: TK-10 renal
[5] = tested on: MALME-3M melanoma
[6] = tested on: HOP-62 NSCLC
[7] = tested on: COLO 205 colon
[8] = tested on: HCT-15 colon
[9] = tested on: SF-295 CNS
[10] = tested on: LOX IMVI melanoma
[11] = tested on: OVCAR-8 ovarian
[12] = tested on: NCI-H460 lung
[13] = tested on: K-562 leukemia
[14] = tested on: DU-145 prostate
[15] = tested on: SN12C renal
[16] = tested on: MDA-N
[17] = tested on: SK-OV-3 ovarian
[18] = tested on: MDA-MB-435
[19] = tested on: EKVX NSCLC
[20] = tested on: NCI-H226 lung

Cc1ccc(S(=O)(=O)NC(=O)NC(CC(N)=O)C(=O)O)cc1 (stereo not given)
TGI [1]: > 100 µM
TGI [2]: > 100 µM
TGI [3]: > 100 µM
TGI [4]: > 100 µM
TGI [5]: > 100 µM
TGI [6]: > 100 µM
TGI [7]: > 100 µM
TGI [8]: > 100 µM
TGI [9]: > 100 µM
TGI [10]: > 100 µM
TGI [11]: > 100 µM
TGI [12]: > 100 µM
TGI [13]: > 100 µM
TGI [14]: > 100 µM
TGI [15]: > 100 µM
TGI [16]: > 100 µM
TGI [17]: > 100 µM

CSCCCN(CCCSC)CCCSC
TGI [1]: > 100 µM
TGI [3]: > 100 µM
TGI [18]: > 100 µM
TGI [6]: > 100 µM
TGI [7]: > 100 µM
TGI [8]: > 100 µM
TGI [9]: > 100 µM
TGI [10]: > 100 µM
TGI [11]: > 100 µM
TGI [12]: > 100 µM
TGI [13]: > 100 µM
TGI [19]: > 100 µM
TGI [14]: > 100 µM
TGI [15]: > 100 µM
TGI [16]: > 100 µM
TGI [17]: > 100 µM

COc1cc(-c2ccc(Br)[nH]2)[nH]c1C=NCC(C)C
TGI [1]: 4.04 µM
TGI [2]: 2.67 µM
TGI [3]: 4.28 µM
TGI [18]: 4.54 µM
TGI [4]: 6.56 µM
TGI [5]: 3.13 µM
TGI [6]: 3.39 µM
TGI [7]: 2.48 µM
TGI [8]: 3.15 µM
TGI [9]: 3.67 µM
TGI [11]: 6.28 µM
TGI [12]: 7.92 µM
TGI [13]: 14.2 µM
TGI [19]: 2.03 µM
TGI [14]: 2.9 µM
TGI [15]: 7.51 µM
TGI [17]: 6.91 µM

Cc1c2n(c(=O)[nH]c1=O)C1OC(CO)C(O2)C1N=[N+]=[N-] (stereo not given)
TGI [1]: > 100 µM
TGI [20]: > 100 µM
TGI [2]: > 100 µM
TGI [4]: > 100 µM
TGI [6]: > 100 µM
TGI [7]: > 100 µM
TGI [8]: > 100 µM
TGI [9]: > 100 µM
TGI [10]: > 100 µM
TGI [11]: > 100 µM
TGI [12]: > 100 µM
TGI [13]: > 100 µM
TGI [19]: > 100 µM
TGI [15]: > 100 µM
TGI [17]: > 100 µM

CCOC(=O)c1ncn2c1[nH]c(=S)c1ccccc12
TGI [1]: > 100 µM
TGI [20]: > 100 µM
TGI [2]: > 100 µM
TGI [3]: > 100 µM
TGI [4]: > 100 µM
TGI [5]: > 100 µM
TGI [6]: > 100 µM
TGI [7]: > 100 µM
TGI [8]: > 100 µM
TGI [9]: > 100 µM
TGI [10]: > 100 µM
TGI [11]: > 100 µM
TGI [12]: > 100 µM
TGI [13]: > 100 µM
TGI [19]: > 100 µM
TGI [15]: > 100 µM
TGI [17]: > 100 µM

CC(=O)Nc1oc(C)c(C)c1S(=O)(=O)c1ccc(Cl)cc1
TGI [1]: > 100 µM
TGI [20]: > 100 µM
TGI [2]: > 100 µM
TGI [3]: > 100 µM
TGI [18]: > 100 µM
TGI [4]: > 100 µM
TGI [5]: > 100 µM
TGI [7]: > 100 µM
TGI [8]: > 100 µM
TGI [9]: > 100 µM
TGI [11]: > 100 µM
TGI [12]: > 100 µM
TGI [13]: > 100 µM
TGI [19]: > 100 µM
TGI [14]: > 100 µM
TGI [17]: > 100 µM

CC1OC(OC2C(OC(=O)[C@]34CCC(C)(C)C[C@H]3C3=CC[C@@H]5[C@@]6(C)CC[C@H](OC7OC(C(=O)O)C(O)C(O)C7O)C(C)(C)[C@@H]6CC[C@@]5(C)[C@]3(C)C[C@H]4O)OCC(O)C2O)C(O)C(O)C1OC1OCC(OC2OCC(O)C(O)C2O)C(O)C1O (stereo not given in full)
TGI [1]: 37.1 µM
TGI [20]: 22.9 µM
TGI [2]: 51.5 µM
TGI [3]: 11.5 µM
TGI [18]: 17.8 µM
TGI [5]: 25.3 µM
TGI [6]: 27.1 µM
TGI [7]: 3.32 µM
TGI [8]: 28 µM
TGI [9]: 22.2 µM
TGI [10]: 24.2 µM
TGI [11]: 32.3 µM
TGI [12]: 32.6 µM
TGI [13]: 47.8 µM
TGI [19]: 15.2 µM
TGI [14]: 23.8 µM
TGI [15]: 5.68 µM
TGI [17]: 26.9 µM

O=C(O)CCC(NC(=O)c1ccc(OCc2nc3cc(C(F)(F)F)ccc3nc2-c2ccccc2)cc1)C(=O)O (stereo not given)
TGI [1]: > 100 µM
TGI [20]: > 100 µM
TGI [3]: > 100 µM
TGI [18]: > 100 µM
TGI [4]: > 100 µM
TGI [5]: > 100 µM
TGI [6]: > 100 µM
TGI [7]: > 100 µM
TGI [8]: > 100 µM
TGI [9]: > 100 µM
TGI [10]: > 100 µM
TGI [11]: > 100 µM
TGI [12]: > 100 µM
TGI [13]: > 100 µM
TGI [19]: > 100 µM
TGI [14]: > 100 µM
TGI [15]: > 100 µM
TGI [17]: > 100 µM

COc1ccc(-c2cc(=O)c3ccc(O)cc3o2)c(OC)c1OC
TGI [20]: > 100 µM
TGI [2]: > 100 µM
TGI [3]: > 100 µM
TGI [4]: > 100 µM
TGI [5]: > 100 µM
TGI [6]: > 100 µM
TGI [7]: > 100 µM
TGI [9]: > 100 µM
TGI [10]: > 100 µM
TGI [13]: > 100 µM
TGI [19]: > 100 µM
TGI [15]: > 100 µM
TGI [17]: > 100 µM

CC(=O)NC1=C(NCC(C)(C)C)C(=O)c2ccccc2C1=O
TGI [1]: > 100 µM
TGI [20]: > 100 µM
TGI [3]: > 100 µM
TGI [4]: > 100 µM
TGI [5]: > 100 µM
TGI [6]: > 100 µM
TGI [7]: > 100 µM
TGI [8]: > 100 µM
TGI [9]: > 100 µM
TGI [10]: > 100 µM
TGI [11]: > 100 µM
TGI [12]: > 100 µM
TGI [13]: > 100 µM
TGI [19]: > 100 µM
TGI [15]: > 100 µM
TGI [17]: > 100 µM

CC1=CC(=O)[C@@H](O)[C@]2(C)[C@H]3[C@@]4(O)OC[C@]35[C@H]([C@@H](C)[C@H]4O)[C@@H](OC(=O)C(C)(C)CO)C(=O)O[C@@H]5C[C@@H]12
TGI [20]: 0.553 µM
TGI [2]: 0.0968 µM
TGI [3]: 0.446 µM
TGI [18]: 1.65 µM
TGI [6]: 1.63 µM
TGI [7]: 7 µM
TGI [8]: 3.1 µM
TGI [9]: 1.71 µM
TGI [10]: 0.0741 µM
TGI [11]: 2.52 µM
TGI [12]: 0.547 µM
TGI [13]: > 100 µM
TGI [19]: 15.1 µM
TGI [15]: 4.5 µM
TGI [16]: 0.825 µM
TGI [17]: > 81.4 µM

COc1cc2c(c(OC)c1O)-c1ccc(SC)c(=O)cc1C(NC(C)=O)CC2 (stereo not given)
TGI [1]: > 100 µM
TGI [20]: > 16.7 µM
TGI [2]: > 100 µM
TGI [3]: > 100 µM
TGI [4]: > 100 µM
TGI [5]: > 100 µM
TGI [6]: > 100 µM
TGI [7]: 0.0209 µM
TGI [8]: > 100 µM
TGI [9]: 0.0868 µM
TGI [10]: > 100 µM
TGI [11]: > 100 µM
TGI [12]: > 11 µM
TGI [13]: > 100 µM
TGI [19]: > 100 µM
TGI [15]: > 100 µM
TGI [17]: > 100 µM

CC(=O)c1cccc(Nc2nc3ccccc3c3occc23)c1
TGI [1]: > 100 µM
TGI [20]: 8.25 µM
TGI [2]: > 100 µM
TGI [3]: > 100 µM
TGI [18]: > 100 µM
TGI [4]: 38.5 µM
TGI [5]: 53 µM
TGI [6]: 34.6 µM
TGI [7]: > 100 µM
TGI [8]: > 100 µM
TGI [9]: 48.4 µM
TGI [10]: > 100 µM
TGI [11]: 74.5 µM
TGI [12]: > 100 µM
TGI [13]: > 100 µM
TGI [19]: > 100 µM
TGI [14]: > 100 µM
TGI [15]: 45.6 µM
TGI [17]: 40.8 µM

O=C(CSC(=S)N1CCCCC1)Nc1nc2c(s1)CCCC2
TGI [1]: 47.8 µM
TGI [20]: > 100 µM
TGI [2]: > 100 µM
TGI [3]: > 100 µM
TGI [4]: > 100 µM
TGI [5]: > 100 µM
TGI [6]: > 100 µM
TGI [7]: > 100 µM
TGI [8]: > 100 µM
TGI [9]: 79.3 µM
TGI [10]: 40.6 µM
TGI [11]: > 100 µM
TGI [12]: > 100 µM
TGI [15]: > 100 µM
TGI [17]: > 100 µM
